Patent publication US6017957A (priority 1989, dated 2000)
Where two headings read alike, the source gives them in different places.

Key:
[1] = molecular target: T1, strychnine-insensitive glycine receptors (NMDA receptor complex) (Rattus norvegicus, UniProt P35439); experiment: Inhibition of [^3 H]glycine binding; format: male Sprague-Dawley rats (forebrain synaptic membranes); conditions: rat forebrain synaptic membranes, 0-4°, 60 min
T1 construct: Synaptic membranes were prepared from forebrains of adult; from tissue; host or cells: forebrain (whole brain minus cerebellum and brainstem) synaptic membranes of adult male Sprague-Dawley rats
Protocol: Membrane preparation: Synaptic membranes were prepared from forebrains of adult (250-350 g) male Sprague-Dawley rats (Taconic Farms, Germantown, N.Y.) by modification of the method of Bristow et al, (1986). In brief, forebrains (whole brain minus cerebellum and brainstem) were weighed and then disrupted for 30 s (Ultra-Turrax, Model STD) in 10 volumes of 0.32 M sucrose containing 5 mM HEPES/4.5 mM Tris pH 7.4. The homogenate was diluted to 50 volumes with this buffer and centrifuged for 10 minutes (1000×g). […]
[^3 H]Glycine binding: Immediately prior to assay, aliquots were thawed at 0-40 and "washed" 3 more times as described above. Membranes (0.1-0.3 mg prot.) were incubated for 60 minutes at 0-4° in HEPES-Tris buffer containing 1 mM MgCl2, ([^3 H]glycine (20 Ci/mmol, ISN, Irvine, Calif.), and drugs as indicated. Nonspecific binding was defined using 1 mM glycine. Incubations (1 ml) were terminated by centrifugation (Eppendorf Model 5414 Microfuge, 5 minutes) and the pellets washed superficially with 1 ml of assay buffer. The pellets were solubilized with 0.5 ml of NCS (Amersham, Arlington Heights, Ill.), agitated for 45 minutes, and 0.05 ml of glacial acetic acid added. Four ml of OCS (Amersham) was added and the radioactivity measured in a Beckman LS 5801 liquid scintillation counter.

[2] = system: maximal electroshock seizures; experiment: Maximal electroshock seizures (MES); format: in vivo, male NIH-Swiss mice; conditions: for effect on MES: ACPC 200-2000, ACPCM 114-571 mg/kg; for Effect on convulsions induced by MES: ACPC 200-2000, ACPCM 114-571 mg/kg i.p.
Protocol: (§1) Male (25-30 g) NIH-Swiss mice (Harlan Sprague-Dawley, Frederick, Md.) were group housed in 32 cm×25 cm×15 cm plastic cages (10-15/cage) with food and water freely available. Mice were injected intraperitoneally with the test substance and challenged fifteen minutes later (unless otherwise specified) with NMDA (125 mg/kg), pentylenetetrazole (PTZ) (80mg/kg), strychnine (strych.) hemisulfate (2 mg/kg, as the base), bicuculline (bicuc.) (6 mg/kg) or maximal electroshock (MES). NMDA, PTZ, and strych. hemisulfate were dissolved in distilled water. Bicuculline was dissolved in 0.01 N HC1. These compounds were injected in a volume of 0.1 ml 1-aminocyclopropanecarboxylates were dissolved in distilled water and doses ≤500 mg/kg injected in a volume of 0.1 ml; doses >500 mg/kg were injected in proportionately larger volumes. Immediately after convulsant challenge, mice were placed in 28.5 cm×17.8 cm×12 cm plastic cages (1/cage) and observed for 15 minutes. The presence or absence of convulsions and the time to the first convulsive episode (latency) were noted. MES were produced by applying a 50 mA current through alligator clips attached to the pinnae for 0.2 s.

NMDA-induced convulsions = NMDA-induced convulsions and death (anticonvulsant activity); format: in vivo, male NIH-Swiss mice; conditions: for ED50: Mus musculus, ip, read-out: ED50, protection against NMDA-induced convulsions and death; for dose-response curve shape: NMDA-induced convulsions; for fold more potent than parent compound (ACPC): anticonvulsant potency in vivo; for Complete protection against NMDA-induced convulsions / Effect on convulsions induced by NMDA (125): i.p.; for Effect on convulsions induced by NMDA (125): 15 min before NMDA 125 mg/kg, ACPC 100-500, ACPCE 39-195, ACPCM 19-190 mg/kg
Protocol: as §1

[3] = system: motor performance (horizontal wire); experiment: Motor performance, horizontal (hanging) wire test; format: in vivo, NIH-Swiss mice; conditions: for impairment of performance in hanging (horizontal) wire test: ACPC 100-2000, ACPCM 19-571 mg/kg, MK-801 1 mg/kg, thirty minutes; for % Impairment, Hanging Wire: i.p., ACPC 400-2000, ACPCM 114-571, MK-801 1 mg/kg
Text: (§2) Evaluation of motor performance:

Overt behavioral effects = conditions: for overt behavioral effects: ACPC 100-2000, ACPCE 39-195, ACPCM 19-571 mg/kg
[4] = system: motor performance (rotarod); experiment: Motor performance, rotarod; format: in vivo, NIH-Swiss mice; conditions: for impairment of performance in rotarod test: ACPC 100-2000, ACPCM 19-571 mg/kg, MK-801 1 mg/kg, thirty minutes; for % Impairment, Rotarod: i.p., ACPC 400-2000, ACPCM 114-571, MK-801 1 mg/kg
Text: as §2

[5] = system: strychnine insensitive glycine binding site of the N-methyl-D-aspartate (NMDA) receptor complex; conditions: Marvizon, 1989; cited from earlier work
[6] = system: NMDA-gated cation channels; conditions: Nadler et al, 1988; cited from earlier work
[7] = system: pentylenetetrazole (PTZ)-induced convulsions; experiment: PTZ-induced convulsions; format: in vivo, male NIH-Swiss mice
Protocol: as §1

[8] = system: bicuculline-induced convulsions; format: in vivo, male NIH-Swiss mice
Protocol: as §1

[9] = system: strychnine-induced convulsions; format: in vivo, male NIH-Swiss mice
Protocol: as §1

[10] = molecular target: T1, strychnine-insensitive glycine receptors (NMDA receptor complex); conditions: Marvizon et al, 1989, cited from earlier work
NMDA receptor complex = conditions: compared with glycine; Marvizon et al, 1989; cited from earlier work
[11] = NMDA 125 mg/kg, vehicle injected mice

COC(=O)C1(N)CC1 [ACPCM, methyl 1-aminocyclopropanecarboxylate]
IC50 [1]: > 40000 nM | effect on MES [2]: Neither ACPC (200-2000 mg/kg) nor ACPCM (114-571 mg/kg) had a significant, dose-dependent effect | Effect on convulsions induced by MES [2]: - | maximum efficacy apparent after injection (time) (NMDA-induced convulsions; ACPCM 114 mg/kg): 5 to 15 min | onset and duration of anticonvulsant action relative to ACPC (NMDA-induced convulsions; ACPCM 114 mg/kg): manifest more rapidly than ACPC but of shorter duration | ED50 (NMDA-induced convulsions): 46 mg/kg | dose-response curve shape (NMDA-induced convulsions): "bell-shaped" dose response curve | fold more potent than parent compound (ACPC) (NMDA-induced convulsions): ~ 5 fold | Complete protection against NMDA-induced convulsions (NMDA-induced convulsions): neither ester could completely block NMDA-induced convulsions and deaths | Effect on convulsions induced by NMDA (125) (NMDA-induced convulsions): + | impairment of performance in hanging (horizontal) wire test [3]: no impairment | % Impairment, Hanging Wire [3]: 0% | overt behavioral effects (Overt behavioral effects): No overt behavioral effects | overt behavioral effects or neurotoxicity (Overt behavioral effects; mouse, in vivo): no overt behavioral effects or neurotoxicity were observed | impairment of performance in rotarod test [4]: no impairment | % Impairment, Rotarod [4]: 0%

CCOC(=O)C1(N)CC1 [ACPCE, ethyl l-aminocyclopropanecarboxylate]
IC50 [1]: > 40000 nM | ED50 (NMDA-induced convulsions): 100 mg/kg | dose-response curve shape (NMDA-induced convulsions): "bell-shaped" dose response curve | fold more potent than parent compound (ACPC) (NMDA-induced convulsions): ~ 2.3 fold | Complete protection against NMDA-induced convulsions (NMDA-induced convulsions): neither ester could completely block NMDA-induced convulsions and deaths | Effect on convulsions induced by NMDA (125) (NMDA-induced convulsions): + | overt behavioral effects (Overt behavioral effects): No overt behavioral effects | overt behavioral effects or neurotoxicity (Overt behavioral effects; mouse, in vivo): no overt behavioral effects or neurotoxicity were observed

NC1(C(=O)O)CC1 [ACPC, 1-aminocyclopropanecarboxylic acid]
partial agonism at strychnine insensitive glycine binding site [5]: potent and selective partial agonist | enhancement of [^3 H]TCP binding [6]: enhances [^3 H]TCP binding | effect on MES [2]: Neither ACPC (200-2000 mg/kg) nor ACPCM (114-571 mg/kg) had a significant, dose-dependent effect | Effect on convulsions induced by MES [2]: - | anticonvulsant effect still manifest after (duration) (NMDA-induced convulsions; ACPC 400 mg/kg): 30 min | maximum protection against NMDA-induced convulsions (NMDA-induced convulsions; ACPC 400 mg/kg): 85% | protection against NMDA-induced convulsions and death (efficacy, time) (NMDA-induced convulsions; ACPC 400 mg/kg, 15 minutes prior to NMDA): most efficacious | ED50 (NMDA-induced convulsions): 234 mg/kg | dose-response curve shape (NMDA-induced convulsions): "bell-shaped" dose-response curve | Complete protection against NMDA-induced convulsions (NMDA-induced convulsions): inability of ACPC to completely block NMDA-induced convulsions | Effect on convulsions induced by NMDA (125) (NMDA-induced convulsions): + | impairment of performance in hanging (horizontal) wire test [3]: no impairment | % Impairment, Hanging Wire [3]: 0% | latency to convulsions induced by PTZ ([7]; ACPC 400 mg/kg): not significantly altered | protection against PTZ-induced convulsions ([7]; ACPC 400 mg/kg): did not afford significant protection | Effect on convulsions induced by PTZ (80) ([7]; ACPC 400 mg/kg i.p., PTZ 80 mg/kg): - | overt behavioral effects (Overt behavioral effects): No overt behavioral effects | overt behavioral effects or neurotoxicity (Overt behavioral effects; mouse, in vivo): lack of overt behavioral effects or neuro-toxicity | therapeutic index versus competitive or non-competitive NMDA receptor antagonists (Overt behavioral effects; mouse, in vivo): greater therapeutic index | latency to convulsions induced by bicuc. ([8]; ACPC 400 mg/kg): not significantly altered | protection against bicuc.-induced convulsions ([8]; ACPC 400 mg/kg): did not afford significant protection | Effect on convulsions induced by BICUC. (6) ([8]; ACPC 400 mg/kg i.p., bicuculline 6 mg/kg): - | latency to convulsions induced by strych. ([9]; ACPC 400 mg/kg): not significantly altered | protection against strych.-induced convulsions ([9]; ACPC 400 mg/kg): did not afford significant protection | Effect on convulsions induced by STRYCH. (2) ([9]; ACPC 400 mg/kg i.p., strychnine 2 mg/kg): - | IC50 ([10]; ACPC, read-out: Inhibition of [^3 H] glycine binding IC50): 38 ± 7 nM | inhibition of strychnine-insensitive [^3 H]glycine binding (type) [10]: potent, competitive inhibitor | Ki ([10]; read-out: affinity K1 for strychnine-insensitive glycine receptors in vitro): 32 nM | enhancement of [3H]MK-801 binding (NMDA receptor complex): enhances [3H]MK-801 binding to this supramolecular complex with a lower efficacy than glycine | impairment of performance in rotarod test [4]: no impairment | % Impairment, Rotarod [4]: 0%

O=C1C[C@@H]2OCC=C3CN4CC[C@]56c7ccccc7N1[C@H]5[C@H]2[C@H]3C[C@H]46 [strychnine, reference compound]
convulsions, % of mice ([9]; strychnine 2 mg/kg): 100% | latency to convulsions ([9]; strychnine 2 mg/kg): 3.1 ± 0.4 min

CN1CCc2cc3c(cc2[C@H]1[C@@H]1OC(=O)c2c1ccc1c2OCO1)OCO3 [bicuculline, reference compound]
convulsions, % of mice ([8]; bicuculline 6 mg/kg): 100% | latency to convulsions ([8]; bicuculline 6 mg/kg): 2.1 ± 0.3 min

C1CCc2nnnn2CC1 [pentylenetetrazole, reference compound]
convulsions, % of mice ([7]; PTZ 80 mg/kg): 100% | latency to convulsions ([7]; PTZ 80 mg/kg): 1.4 ± 0.2 min

CN[C@H](CC(=O)O)C(=O)O [NMDA, N-methyl-D-aspartate, reference compound]
convulsions and death, mice affected (NMDA-induced convulsions; [11]): all | latency to convulsions (NMDA-induced convulsions; [11]): 4.6 ± 0.4 min
